Test results as given in patent US8420606B2, “Method of utilizing physiological activity of rare saccharide and composition containing rare saccharide” (priority 2002, dated 2013).
“Also recorded” adds a separate entry of the source.

What was measured:
[1] = tested on: Rat leukocyte (granulocyte); assay: production of active oxygen from leukocyte, LO12 chemiluminescence, zymosan; type: cell-based; conditions: for production of active oxygen from leukocyte: saccharide 10 mM added to the producing system, zymosan
Experimental: Influences of various kinds of rare saccharides upon production of active oxygen from leukocyte were examined under the conditions given below. In this Example 5, an effect against the production of active oxygen from leukocyte was examined with LO12 chemiluminescence.
(1) Target leukocyte to which the rare saccharides were added: Rat leukocyte (granulocyte) was used.
(2) Rare saccharides added: In addition to D-allose as a rare saccharide belonging to aldose, D-psicose and D-altros as rare saccharides belonging to ketose and D-tallitol belong to polyol were added as other comparative saccharides. Further, D-glucose and D-fructose were employed as saccharides abundant in the natural world.
(3) Experiment method: (1) Changes over time in production of active oxygen from rat leukocyte . . . The time-dependent progress in production of active oxygen caused by adding zymosan particles to rat leukocyte (granulocyte) was examined. Also, the time-dependent progress in production of active oxygen caused under the presence of each of the rare saccharides was examined.
(2) Influences of rare saccharides upon production of active oxygen . . . By adding the various saccharides to the system for producing active oxygen from leukocyte, the amount of produced active oxygen was measured for each saccharide. The concentration of each of the added rare saccharides was set to 10 mM. Also, the measurement was made under the condition without addition of any saccharides.
(3) Effect of rare saccharides upon production of active oxygen . . . The rare saccharides were each added at concentration of 10 mM after the start of phagocytosis and the start of the production of active oxygen subsequent to addition of zymosan to leukocyte.
(4) Concentration dependency of active-oxygen production inhibitory effect of D-allose . . . Concentration dependency of the active-oxygen production inhibitory effect of D-allose was examined. D-allose was added at concentration of 0 mM, 5 mM and 10 mM.

[2] = tested on: island skin flap of Wistar rat; assay: island skin-flap ischemia-reperfusion, survival area; type: in vivo
From the text: (1) Purpose: In the past basic researches, the inventors have tried to find out the mechanisms of skin-flap necrosis after ischemia and reperfusion of island skin flaps and necrosis of distal portions of random pattern skin flaps. As a result, the inventors have clarified that active oxygen is related to the necrosis of island skin flaps after ischemia and reperfusion and the necrosis of distal portions of random pattern skin flaps. […] In this Example 7, a first purpose is to obtain basic data regarding active-oxygen production inhibitory effects of rare saccharides, and a second purpose is to ensure clinical applications with the view of effectively preventing the necrosis of island skin flaps and random pattern skin flaps. A third purpose is to realize an application as a preservative liquid for long-period preservation of free skin flaps and amputated limbs. (2) Experiment method: 1) A Wistar rat (♂, 7 to 8 weeks, and 300 g or less) was put under anesthesia through abdominal administration of pentobarbital (Nembutal). 2) The abdomen was wholly shaved by a hair clipper. 3) An island skin flap of 3×5 cm was formed in the left abdomen with the left femoral artery and vein serving as blood vessel pedicels. 4) The elevated island skin flap was stitched to the original position by using a 4-0 nylon string. 5) Drugs (0.6 mL per drug) were each administrated in one shot through the right femoral artery and vein by instantaneous injection. The administered drugs were D-allose, glucose (0.2 mg/g), and physiological saline in various concentrations.
6) After waiting for 15 minutes from the administration of each drug, the blood vessel pedicels of both the left femoral artery and vein were clamped. Two vascular clips (60 g for the vein) were used for the clamping.
7) Complete shutoff of blood circulation was confirmed by using a laser Doppler rheometer.
8) After 8 hours, the rats were unclamped. Resumption of blood circulation was also confirmed by using a laser Doppler rheometer.
9) After 1 week, the life or death of the skin flap was determined.
10) An image of the skin flap was taken by a digital camera and input to a computer to calculate a survival area (%) by using area calculation software.
(3) Experiment groups: The following 6 groups were prepared with n=15 in each group.
1) D-allose: 150 mg (0.5 mg/g)
2) D-allose: 60 mg (0.2 mg/g)
3) D-allose: 30 mg (0.1 mg/g)
4) D-allose: 15 mg (0.05 mg/g)
5) D-glucose: 60 mg (0.2 mg/g)
6) physiological saline (control)
(4) Results (FIGS. 17 to 20): FIG. 18 showing all data of the survival areas (%), and FIG. 19 showing results of variance analysis (one-dimensional arrangement). […] In the multiple comparison assay, a significant difference was determined on condition of p<0.05.

[3] = rat blood-sugar value after intravenous saccharide under anesthesia; type: in vivo; conditions: for blood sugar value: 200 mg/kg BW intravenous, normal rats under anesthesia, fasted
Experimental: (2) Method: 1) Administration of rare saccharide: An SD male rat (with weight of about 300 g) was employed in an experiment after fasting for 20 to 24 hours. Nembutal (58 mg/kg B.W) was applied to the rat through abdominal administration, and after cutting the neck under anesthesia, a silicon tube was fixedly kept inserted in the jugular vein. A 1-ml syringe was connected to the silicon tube for administration of the rare saccharide. 2) Blood-collecting: Blood was collected by using the 1-ml syringe through the silicon tube inserted in the jugular vein. The blood-collecting was made immediately before the administration of the rare saccharide and then after 5, 10, 15, 20, 25, 30, 60, 120, 180 and 240 minutes from the same. 3) Blood sugar measurement: The blood sugar value in the collected blood was measured by using Antosense II (made by Bayer Medical).

human albumin = human albumin (Homo sapiens, UniProt P02768); assay: saccharification (glycation) of albumin, glycoalbumin reagent; type: biochemical; conditions: albumin 3 g/dl
Chain of human albumin (P02768 25-609): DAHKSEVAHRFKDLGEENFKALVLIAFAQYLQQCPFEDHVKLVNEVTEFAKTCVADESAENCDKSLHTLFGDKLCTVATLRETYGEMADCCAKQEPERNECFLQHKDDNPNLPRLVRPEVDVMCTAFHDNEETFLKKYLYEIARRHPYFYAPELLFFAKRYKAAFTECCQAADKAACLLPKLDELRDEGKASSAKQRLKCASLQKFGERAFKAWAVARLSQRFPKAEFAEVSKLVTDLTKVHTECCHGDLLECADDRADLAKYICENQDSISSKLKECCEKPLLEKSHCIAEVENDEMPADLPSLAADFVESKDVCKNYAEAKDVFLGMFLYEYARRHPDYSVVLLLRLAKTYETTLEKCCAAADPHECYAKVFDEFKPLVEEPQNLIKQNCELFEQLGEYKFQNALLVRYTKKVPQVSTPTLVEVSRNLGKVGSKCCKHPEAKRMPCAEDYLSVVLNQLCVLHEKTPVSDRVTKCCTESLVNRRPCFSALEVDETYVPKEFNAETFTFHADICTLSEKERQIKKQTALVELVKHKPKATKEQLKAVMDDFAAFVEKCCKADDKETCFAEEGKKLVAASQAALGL
Experimental: (2) Method: After fragmenting albumin into amino acids by using protease K, i.e., glycoalbumin (GA) measurement reagent (made by Oriental Yeast Co., Ltd.), glycolysine was measured by using ketoamine oxydase (see FIG. 38). Glycation of human albumin with various rare saccharides was examined. A sample was prepared through the steps of dissolving 3 g/dl of pure human albumin in PBS and then dissolving each of the rare saccharides so as to prepare a solution in final concentration of 55.5 mM. The prepared solution was filtrated with a filter of 0.25 μm mesh and sterilized, followed by incubation at 37° C. for 7 days. During the incubation, the GA concentration (glycolysine concentration) was measured at intervals of exactly 24 hours. Further, similar experiments were conducted by adding each of the rare saccharides in an albumin solution (final concentration 3 g/dl) and a glucose solution (final concentration 55.5 mM) so that each of the rare saccharides had final concentration of 55.5 mM.

[4] = saccharide 55.5 mM, 37° C., 7 days
[5] = saccharide 55.5 mM + D-glucose 55.5 mM

| Structure (SMILES) | production of active oxygen from leukocyte [1] | skin flap survival area versus physiological saline group ([2]; D-glucose 60 mg (0.2 mg/g)) | blood sugar value [3] | time until blood sugar value approached a normal value ([3]; D-glucose 200 mg/kg BW intravenous) | saccharification rate of albumin (human albumin; [4]) | blood sugar value ([3]; listed as Psicose) | effect of inhibiting glycation under coexistence with glucose (human albumin; [5]) | glycation (saccharification) of albumin (human albumin; [4]) | effective concentration for active-oxygen production inhibition ([1]; 0, 5 and 10 mM tested) | production of active oxygen, saccharide added after start of production ([1]; 10 mM added after start of phagocytosis and of active oxygen production) | active-oxygen production inhibitory effect ([1]; D-allose 5 mM) | inhibition at 10000 µM ([1]; Rattus norvegicus, Leukocyte, D-allose 10 mM, read-out: active-oxygen production inhibitory effect) | skin flap survival area versus physiological saline group and glucose group ([2]; D-allose 15 mg (0.05 mg/g)) | skin flap survival area versus physiological saline group ([2]; D-allose 30 mg (0.1 mg/g) or more (groups 150, 60, 30 mg), 8 hours clamping, 1 week, p<0.05) | skin flap survival area versus glucose group ([2]; D-allose 150 mg (0.5 mg/g) and 60 mg (0.2 mg/g)) | dose required to develop the effect of extending the skin flap survival area ([2]; per rat, 30 mg = 0.1 mg/g) | saccharification rate of albumin under coexistence with glucose (human albumin; [5]) |
| --- | --- | --- | --- | --- | --- | --- | --- | --- | --- | --- | --- | --- | --- | --- | --- | --- | --- |
| O=C[C@H](O)[C@@H](O)[C@H](O)[C@H](O)CO [D-glucose, reference compound] | No inhibitory effect | did not show a statistical significant difference | temporarily increased | about 60 minutes | about 50 μmol/day | – | – | – | – | – | – | – | – | – | – | – | – |
| O=C(CO)[C@H](O)[C@H](O)[C@H](O)CO [D-psicose] | No inhibitory effect | – | light hypoglycemic | – | – | reduced during a period of 30 to 60 minutes | not found | not found; also recorded: does not promote saccharification of albumin | – | – | – | – | – | – | – | – | – |
| O=C[C@H](O)[C@H](O)[C@H](O)[C@H](O)CO [D-allose] | inhibited; also recorded: has an effect of inhibiting production of active oxygen; also recorded: very strong effect of inhibiting the production of active oxygen | – | no hypoglycemic was found | – | about 90 μmol/day | – | – | – | approximately 10 mM | the inhibitory effect was found | did not appear | ≥ 50% | a statistical significant difference was not confirmed | a statistical significant difference was confirmed | a statistical significant difference was confirmed | ≥ 30 mg | about 140 μmol/day |
